# Assay results from patent publication US11001591B2, “TRAF 6 inhibitors” (HELMHOLTZ ZENTRUM MUENCHEN—DEUTSCHES FORSCHUNGSZENTRUM FÜR …, priority 2016, dated 2021).
# What was measured:
# [1] = target: T1, E6AP (Homo sapiens, UniProt Q05086); assay: In vitro ubiquitination assay, E6AP; assay type: biochemical; details: HECT E3 ligase
# T1 construct: purchased Boston Biochem one of K-102, K-260, K-200B, K-220, K-240, K-270
# Method: (§1) For analysis of clAP1, MDM2, TRIM63, RNF4, ITCH and E6AP mediated poly-ubiquitination, the respective ubiquitin ligase kit from Boston Biochem (K-102, K-260, K-200B, K-220, K-240 and K-270) was used. Here, reaction buffer, E1, E2 and E3 enzyme (and p53 substrate in case of MDM2) were mixed and pre-incubated with compound or DMSO for 5 minutes at room temperature before adding Mg^2+-ATP and mono-ubiquitin for reaction start. Ubiquitination was visualized by Western Blot analyses.
# [2] = target: T2, ITCH (Homo sapiens, UniProt Q96J02); assay: In vitro ubiquitination assay, ITCH; assay type: biochemical; details: HECT E3 ligase
# T2 construct: purchased Boston Biochem one of K-102, K-260, K-200B, K-220, K-240, K-270
# Method: as §1
# [3] = system: IMQ-induced psoriasis, Balb/C mice; assay: Imiquimod (IMQ)-induced psoriasis mouse model; assay type: in vivo
# Method: To evaluate the anti-inflammatory activity of the compound C25-140 (compound 3), an Imiquimod (IMQ)-induced psoriasis mouse model was conducted by Washington Biotechnology, Inc. (Baltimore, USA). Per group, 8 male Balb/C mice were shaved in the back (1.5 cm×2 cm) and IMQ and C25-140 were applied topically to the shaved back and the right ear daily for 6 days. Thereby, C25-140 was dissolved in acetone and applied at a total dosage of 500 μg per day (2×250 μg). Mice were monitored and daily scores (erythema, scaling and thickness of back skin) were independently collected on a scale from 0 to 4:0=none; 1=slight; 2=moderate; 3=marked and 4=very marked. Ear thickness was measured by electronic calipers as an indicator of edema. IL-17 cytokine secretion of the right ear tissue was measured by ELISA.
# [4] = system: primary naïve CD4+ T-cells; assay: IL-2 in primary murine CD4+ T-cells; assay type: cell-based, mouse; details: CD3/CD28 stimulation
# Method: For MEF cells, 1.2×10^5 cells per sample were seeded, treated with compound for 6 hours and stimulated with either IL-1β or TNFα for 60 minutes. […] RNA was isolated according to the manufacturer's protocol of the Qiagen RNeasy Kit (MEF cells) or the STRATEC INVITRAP® SPIN UNIVERSAL RNA MINI KIT (Jurkat T-cells). The isolation of mRNA from […] white adipose tissue from DIO mice was performed using TRIzol® Reagent according to manufacturer's instruction. To clear the isolated RNA from genomic DNA, samples (up to 5 μg RNA) were treated with RQ1 RNase-Free DNaseI (Promega) as described in the technical manual. […] For quantification of cDNA in the samples, the LightCylcer480 (Roche) and the KAPA SYBR FAST qPCR Kit were used. For relative quantification, the ΔΔCp method first described by Pfaffl (Pfaffl, M. W., A new mathematical model for relative quantification in real-time RT-PCR. Nucleic Acids Res, 2001. 29(9): p. e45) was applied. […]
# For measurement of cytokine secretion, 2×10^5 Jurkat T-cells or primary CD4^+ T-cells or human PBMCs per sample were seeded, treated with compound for 6 hours and stimulated as indicated. 20 hours after stimulation, supernatants were harvested and analyzed with the IL-2, IL-1β and TNFα Ready-Set-Go! […]
# T2 sequence (Q96J02 whole entry): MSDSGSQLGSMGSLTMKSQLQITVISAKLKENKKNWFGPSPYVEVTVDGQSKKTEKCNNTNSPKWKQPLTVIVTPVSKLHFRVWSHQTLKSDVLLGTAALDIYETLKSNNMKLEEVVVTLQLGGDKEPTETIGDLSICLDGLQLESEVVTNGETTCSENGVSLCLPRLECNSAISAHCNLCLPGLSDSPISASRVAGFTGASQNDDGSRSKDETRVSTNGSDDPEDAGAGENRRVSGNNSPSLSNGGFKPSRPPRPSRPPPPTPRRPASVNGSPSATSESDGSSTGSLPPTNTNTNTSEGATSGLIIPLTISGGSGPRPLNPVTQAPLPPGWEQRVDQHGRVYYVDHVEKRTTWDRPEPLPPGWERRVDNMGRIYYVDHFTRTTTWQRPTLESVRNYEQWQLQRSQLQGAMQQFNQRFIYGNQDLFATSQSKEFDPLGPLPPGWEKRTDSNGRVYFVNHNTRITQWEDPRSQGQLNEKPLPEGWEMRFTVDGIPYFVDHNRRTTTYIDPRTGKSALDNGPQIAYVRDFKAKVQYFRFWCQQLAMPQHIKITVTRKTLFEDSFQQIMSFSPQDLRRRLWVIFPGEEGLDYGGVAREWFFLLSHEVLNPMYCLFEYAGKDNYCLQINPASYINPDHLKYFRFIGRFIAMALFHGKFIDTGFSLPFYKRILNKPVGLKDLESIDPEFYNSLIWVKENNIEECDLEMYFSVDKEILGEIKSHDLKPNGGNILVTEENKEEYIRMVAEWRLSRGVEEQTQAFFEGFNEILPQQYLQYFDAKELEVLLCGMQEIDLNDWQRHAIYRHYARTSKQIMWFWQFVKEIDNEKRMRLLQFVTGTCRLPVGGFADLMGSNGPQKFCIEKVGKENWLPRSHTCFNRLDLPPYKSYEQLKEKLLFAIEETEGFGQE
# T1 sequence (Q05086 whole entry): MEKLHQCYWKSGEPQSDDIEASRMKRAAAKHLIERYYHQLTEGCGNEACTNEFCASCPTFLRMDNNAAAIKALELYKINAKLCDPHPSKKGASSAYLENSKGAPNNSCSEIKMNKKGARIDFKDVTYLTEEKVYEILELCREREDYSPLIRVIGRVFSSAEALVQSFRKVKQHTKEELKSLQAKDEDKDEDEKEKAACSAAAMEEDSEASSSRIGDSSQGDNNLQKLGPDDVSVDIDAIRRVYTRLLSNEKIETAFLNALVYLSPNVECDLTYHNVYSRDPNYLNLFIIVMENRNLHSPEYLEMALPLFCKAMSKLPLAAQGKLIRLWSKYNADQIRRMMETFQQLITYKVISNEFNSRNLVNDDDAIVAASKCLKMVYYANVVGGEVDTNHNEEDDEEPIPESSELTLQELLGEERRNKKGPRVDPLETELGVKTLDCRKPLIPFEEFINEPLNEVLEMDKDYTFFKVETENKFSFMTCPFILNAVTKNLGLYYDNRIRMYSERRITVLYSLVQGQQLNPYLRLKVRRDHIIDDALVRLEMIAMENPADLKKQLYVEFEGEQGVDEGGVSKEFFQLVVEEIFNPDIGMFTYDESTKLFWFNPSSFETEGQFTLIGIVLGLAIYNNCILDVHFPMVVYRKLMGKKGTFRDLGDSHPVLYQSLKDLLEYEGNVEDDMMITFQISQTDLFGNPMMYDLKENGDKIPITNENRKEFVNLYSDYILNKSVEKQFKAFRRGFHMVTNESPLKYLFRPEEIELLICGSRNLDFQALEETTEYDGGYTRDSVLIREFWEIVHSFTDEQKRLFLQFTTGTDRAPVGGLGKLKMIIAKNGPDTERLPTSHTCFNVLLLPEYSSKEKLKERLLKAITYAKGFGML
smiles,measurement,setting,value
"Cc1nn(-c2ccc3nnc(C)n3n2)c(C)c1CCC(=O)N1CCC(Cc2ccccc2)CC1 [Compound 3, 1-(4-benzylpiperidin-1-yl)-3-(3,5-dimethyl-1-(3-methyl-[1,2,4]triazolo[4,3-b]pyridazin-6-yl)-1H-pyrazol-4-yl)propan-1-one]",S5A ubiquitination by E6AP,[1],not affected
same,ITCH auto-ubiquitination,[2],not affected
same,IL-17 in right ear tissue,"[3]; day 6, ELISA",decreased
same,"cumulative score (thickness, scaling, erythema of the back)","[3]; topical twice daily, 6 days",reduces
same,ear thickness,"[3]; topical twice daily, 6 days",significantly reduced
same,"scaling, erythema and ear thickness scores","[3]; topical twice daily, 6 days",improvement of the disease symptoms
same,thickness score of the back,"[3]; topical twice daily, 6 days",significantly reduce
same,IL-2 mRNA expression,[4],impaired
same,IL-2 protein secretion,[4],impaired
